Results published in ChEMBL document CHEMBL3091419, “Cytidine derivatives as IspF inhibitors of Burkolderia pseudomallei” (Bioorg Med Chem Lett, 2013).
Calls of active or inactive are those of the source. No cut-off for these calls is given here.

Columns and labels:
[1] = molecular target: T1, 2-C-methyl-D-erythritol 2,4-cyclodiphosphate synthase (Burkholderia pseudomallei (strain K96243), UniProt Q63T71); assay: Binding affinity to Burkolderia pseudomallei IspF by surface plasmon resonance method
T1 sequence (Q63T71 whole entry): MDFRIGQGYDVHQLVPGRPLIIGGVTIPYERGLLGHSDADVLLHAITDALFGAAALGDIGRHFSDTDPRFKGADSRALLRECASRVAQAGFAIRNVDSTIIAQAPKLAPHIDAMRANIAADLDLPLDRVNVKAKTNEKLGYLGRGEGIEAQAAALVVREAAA

Plasmodium falciparum [2] = assay: Antimicrobial activity against Plasmodium falciparum W2 at 40 uM; assay type: functional, organism-based
[3] = test system: Burkholderia thailandensis; assay: Antimicrobial activity against Burkholderia thailandensis at 1 mM; assay type: functional
Plasmodium falciparum [4] = assay: Antimicrobial activity against Plasmodium falciparum D6 at 40 uM; assay type: functional, organism-based
Plasmodium falciparum [5] = assay: Antimicrobial activity against Plasmodium falciparum C235 at 40 uM; assay type: functional, organism-based

SMILES | Kd [1] [µM] | Activity (Plasmodium falciparum [2]) | Activity [3] | Activity (Plasmodium falciparum [4]) | Activity (Plasmodium falciparum [5])
Nc1ccn([C@@H]2O[C@H](CNC(=O)c3ccnc4nc[nH]c34)[C@@H](O)[C@H]2O)c(=O)n1 | 90 | inactive | inactive | inactive | inactive
Nc1ccn([C@@H]2O[C@H](CNC(=O)c3cscn3)[C@@H](O)[C@H]2O)c(=O)n1 | 200 | inactive | inactive | inactive | inactive
Nc1ccn([C@@H]2O[C@H](CNC(=O)c3ccncc3)[C@@H](O)[C@H]2O)c(=O)n1 | 180 | inactive | inactive | inactive | inactive
Oc1ccc(-n2ccnc2)cc1 | > 500 |  |  |  | 
Nc1ccn([C@@H]2O[C@H](CNC(=O)Cc3cn4ccsc4n3)[C@@H](O)[C@H]2O)c(=O)n1 | 148 | inactive | inactive | inactive | inactive
Nc1ccn([C@@H]2O[C@H](CNC(=O)c3cn4ccsc4n3)[C@@H](O)[C@H]2O)c(=O)n1 | 70 | inactive | inactive | inactive | inactive
OCc1cn2ccsc2n1 | 135 |  |  |  | 
